According to ChEMBL document CHEMBL3885881, “DrugMatrix”:

Species: Rattus norvegicus
Assay: DrugMatrix - Regimen: Daily Repeat
Assay type: toxicity, organism-based, Sprague-Dawley
Set-up: regimen Daily Repeat, gender Male, age 6-8 weeks
Conditions: in vivo, sc, route subcutaneous, […]; for ABSOLUTE BASOPHIL / ABSOLUTE EOSINOPHIL / ABSOLUTE LYMPHOCYTE / ABSOLUTE MONOCYTE / BASOPHIL / EOSINOPHIL / ERYTHROCYTE COUNT / HEMATOCRIT / HEMOGLOBIN / LEUKOCYTE COUNT / LYMPHOCYTE / MEAN CORPUSCULAR HEMOGLOBIN / MEAN CORPUSCULAR HEMOGLOBIN CONCENTRATION / MEAN CORPUSCULAR VOLUME / MONOCYTE / NEUTROPHIL / NUCLEATED RED BLOOD CELLS / PLATELET COUNT: tissue Blood; for ALANINE AMINOTRANSFERASE / ALBUMIN / ASPARTATE AMINOTRANSFERASE / BLOOD UREA NITROGEN / CARBON DIOXIDE / CHLORIDE / CHOLESTEROL / CREATINE PHOSPHOKINASE / CREATININE / GLUCOSE / LACTATE DEHYDROGENASE / LIPASE / PHOSPHORUS / POTASSIUM / SODIUM / TOTAL BILIRUBIN / TOTAL PROTEIN / URIC ACID: tissue Plasma
[1] = 64 mg/kg, 120 h, dose level Low, time 5 day
[2] = 636 mg/kg, 72 h, dose level High, time 3 day
[3] = 636 mg/kg, 120 h, dose level High, time 5 day

For `Nc1ccc(S(N)(=O)=O)cc1` [SULFANILAMIDE], the “ABSOLUTE BASOPHIL” value [1] was 0 CELLS/uL, the “ABSOLUTE EOSINOPHIL” value [1] was 0 CELLS/uL and the “ABSOLUTE LYMPHOCYTE” value [1] was 12536.33 CELLS/uL. For the same compound, the “ABSOLUTE MONOCYTE” value [1] was 42.67 CELLS/uL, the BASOPHIL [1] was 0% and the EOSINOPHIL [1] was 0%. The “ERYTHROCYTE COUNT” value [1] was 5.85 x10E6/uL, the HEMATOCRIT [1] was 36.4% and the HEMOGLOBIN [1] was 13.6 G/DL. For the same compound, the “LEUKOCYTE COUNT” value [1] was 13.6 x10E3/uL, the LYMPHOCYTE [1] was 92.67% and the “MEAN CORPUSCULAR HEMOGLOBIN” value [1] was 23.33 pg. For the same compound, the “MEAN CORPUSCULAR HEMOGLOBIN CONCENTRATION” value [1] was 37.4 G/DL, the “MEAN CORPUSCULAR VOLUME” value [1] was 62.37 fL and the MONOCYTE [1] was 0.33%. The NEUTROPHIL [1] was 7%, the “NUCLEATED RED BLOOD CELLS” value [1] was 0.33 /100WBC and the “PLATELET COUNT” value [1] was 1318 x10E3/uL. For the same compound, the “ALANINE AMINOTRANSFERASE” value [1] was 52 u/L, the ALBUMIN [1] was 4.03 G/DL and the “ASPARTATE AMINOTRANSFERASE” value [1] was 72 u/L. The “BLOOD UREA NITROGEN” value [1] was 15.67 mg/dL, the “CARBON DIOXIDE” value [1] was 26.33 mmol/L and the CHLORIDE [1] was 105.33 MEQ/L. The CHOLESTEROL [1] was 72.33 mg/dL, the “CREATINE PHOSPHOKINASE” value [1] was 187 u/L and the CREATININE [1] was 0.27 mg/dL. For the same compound, the GLUCOSE [1] was 156.33 mg/dL, the “LACTATE DEHYDROGENASE” value [1] was 102.33 u/L and the LIPASE [1] was 11 u/L. The PHOSPHORUS [1] was 12.07 mg/dL, the POTASSIUM [1] was 7.26 MEQ/L and the SODIUM [1] was 145.23 MEQ/L. For the same compound, the “TOTAL BILIRUBIN” value [1] was 0.23 mg/dL, the “TOTAL PROTEIN” value [1] was 5.9 G/DL and the “URIC ACID” value [1] was 1.87 mg/dL. For the same compound, the “ABSOLUTE BASOPHIL” value [2] was 0 CELLS/uL, the “ABSOLUTE EOSINOPHIL” value [2] was 116 CELLS/uL and the “ABSOLUTE LYMPHOCYTE” value [2] was 13223.33 CELLS/uL. The “ABSOLUTE MONOCYTE” value [2] was 374 CELLS/uL, the BASOPHIL [2] was 0% and the EOSINOPHIL [2] was 0.67%. The “ERYTHROCYTE COUNT” value [2] was 5.74 x10E6/uL, the HEMATOCRIT [2] was 35.33% and the HEMOGLOBIN [2] was 12.9 G/DL. For the same compound, the “LEUKOCYTE COUNT” value [2] was 15.8 x10E3/uL, the LYMPHOCYTE [2] was 83.67% and the “MEAN CORPUSCULAR HEMOGLOBIN” value [2] was 22.47 pg. The “MEAN CORPUSCULAR HEMOGLOBIN CONCENTRATION” value [2] was 36.5 G/DL, the “MEAN CORPUSCULAR VOLUME” value [2] was 61.53 fL and the MONOCYTE [2] was 2.33%. The NEUTROPHIL [2] was 13.33%, the “NUCLEATED RED BLOOD CELLS” value [2] was 0 /100WBC and the “PLATELET COUNT” value [2] was 1297.33 x10E3/uL. For the same compound, the “ALANINE AMINOTRANSFERASE” value [2] was 71 u/L, the ALBUMIN [2] was 3.97 G/DL and the “ASPARTATE AMINOTRANSFERASE” value [2] was 90.33 u/L. The “BLOOD UREA NITROGEN” value [2] was 18.67 mg/dL, the “CARBON DIOXIDE” value [2] was 25 mmol/L and the CHLORIDE [2] was 103 MEQ/L. The CHOLESTEROL [2] was 101.33 mg/dL, the “CREATINE PHOSPHOKINASE” value [2] was 400.67 u/L and the CREATININE [2] was 0.16 mg/dL. The GLUCOSE [2] was 181.67 mg/dL, the “LACTATE DEHYDROGENASE” value [2] was 100.67 u/L and the LIPASE [2] was 10 u/L. It also gave a PHOSPHORUS [2] of 12.37 mg/dL, a POTASSIUM [2] of 5.81 MEQ/L and an SODIUM [2] of 145.13 MEQ/L. For the same compound, the “TOTAL BILIRUBIN” value [2] was 0.2 mg/dL, the “TOTAL PROTEIN” value [2] was 5.67 G/DL and the “URIC ACID” value [2] was 2.4 mg/dL. For the same compound, the “ABSOLUTE BASOPHIL” value [3] was 0 CELLS/uL, the “ABSOLUTE EOSINOPHIL” value [3] was 129.33 CELLS/uL and the “ABSOLUTE LYMPHOCYTE” value [3] was 15741.33 CELLS/uL. For the same compound, the “ABSOLUTE MONOCYTE” value [3] was 353 CELLS/uL, the BASOPHIL [3] was 0% and the EOSINOPHIL [3] was 0.67%. The “ERYTHROCYTE COUNT” value [3] was 5.45 x10E6/uL, the HEMATOCRIT [3] was 34.17% and the HEMOGLOBIN [3] was 12.6 G/DL. The “LEUKOCYTE COUNT” value [3] was 18.03 x10E3/uL, the LYMPHOCYTE [3] was 86.33% and the “MEAN CORPUSCULAR HEMOGLOBIN” value [3] was 23.13 pg. The “MEAN CORPUSCULAR HEMOGLOBIN CONCENTRATION” value [3] was 36.87 G/DL, the “MEAN CORPUSCULAR VOLUME” value [3] was 62.7 fL and the MONOCYTE [3] was 2%. The NEUTROPHIL [3] was 11%, the “NUCLEATED RED BLOOD CELLS” value [3] was 0 /100WBC and the “PLATELET COUNT” value [3] was 1550 x10E3/uL. The “ALANINE AMINOTRANSFERASE” value [3] was 66 u/L, the ALBUMIN [3] was 3.8 G/DL and the “ASPARTATE AMINOTRANSFERASE” value [3] was 77 u/L. For the same compound, the “BLOOD UREA NITROGEN” value [3] was 21.67 mg/dL, the “CARBON DIOXIDE” value [3] was 26.67 mmol/L and the CHLORIDE [3] was 105.33 MEQ/L. For the same compound, the CHOLESTEROL [3] was 81.33 mg/dL, the “CREATINE PHOSPHOKINASE” value [3] was 230.33 u/L and the CREATININE [3] was 0.16 mg/dL. For the same compound, the GLUCOSE [3] was 165.33 mg/dL, the “LACTATE DEHYDROGENASE” value [3] was 107.33 u/L and the LIPASE [3] was 9 u/L. The PHOSPHORUS [3] was 12.53 mg/dL, the POTASSIUM [3] was 7.05 MEQ/L and the SODIUM [3] was 144.3 MEQ/L. For the same compound, the “TOTAL BILIRUBIN” value [3] was 0.2 mg/dL, the “TOTAL PROTEIN” value [3] was 5.63 G/DL and the “URIC ACID” value [3] was 1.93 mg/dL.
